Data taken from paper PMC9471048, “The signaling and selectivity of α‐adrenoceptor agonists for the human α2A, α2B and α2C‐adrenoceptors and comparison with human α1 and β‐adrenoceptors” (Pharmacology Research & Perspectives, 2022).
Where two headings read alike, the source gives them in different places.

Assays:
human α2A‐adrenoceptor [1] = target: T1, human α2A‐adrenoceptor (Homo sapiens, UniProt P08913)
T1 sequence (P08913 1-465): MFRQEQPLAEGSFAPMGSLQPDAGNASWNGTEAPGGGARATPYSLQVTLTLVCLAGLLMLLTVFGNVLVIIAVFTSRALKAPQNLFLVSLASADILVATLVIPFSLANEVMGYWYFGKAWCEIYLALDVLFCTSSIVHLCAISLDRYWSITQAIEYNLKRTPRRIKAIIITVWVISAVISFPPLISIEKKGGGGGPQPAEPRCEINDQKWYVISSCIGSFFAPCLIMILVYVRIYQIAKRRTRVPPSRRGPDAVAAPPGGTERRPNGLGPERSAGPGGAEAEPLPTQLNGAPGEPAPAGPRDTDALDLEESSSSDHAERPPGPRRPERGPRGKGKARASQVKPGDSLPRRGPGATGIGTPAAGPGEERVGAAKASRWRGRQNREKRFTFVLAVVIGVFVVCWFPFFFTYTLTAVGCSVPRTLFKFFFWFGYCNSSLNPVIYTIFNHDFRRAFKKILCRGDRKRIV

human α2C‐adrenoceptor [2] = target: T2, human α2C‐adrenoceptor (Homo sapiens, UniProt P18825)
T2 sequence (P18825 1-462): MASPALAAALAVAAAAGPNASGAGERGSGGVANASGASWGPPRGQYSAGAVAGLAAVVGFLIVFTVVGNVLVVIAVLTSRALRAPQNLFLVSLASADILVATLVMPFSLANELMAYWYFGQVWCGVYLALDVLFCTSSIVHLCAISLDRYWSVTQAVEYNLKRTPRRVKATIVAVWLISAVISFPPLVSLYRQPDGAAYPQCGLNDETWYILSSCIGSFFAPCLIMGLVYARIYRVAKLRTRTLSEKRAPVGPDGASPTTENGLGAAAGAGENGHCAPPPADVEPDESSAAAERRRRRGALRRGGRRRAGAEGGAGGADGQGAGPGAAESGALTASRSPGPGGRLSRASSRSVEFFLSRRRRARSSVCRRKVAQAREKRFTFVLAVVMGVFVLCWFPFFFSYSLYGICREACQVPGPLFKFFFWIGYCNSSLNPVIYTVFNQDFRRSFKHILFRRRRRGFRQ

human α2C‐adrenoceptor [3] = target: T2, human α2C‐adrenoceptor; experiment: 3H‐rauwolscine whole cell binding in CHO‐α2C cells; design: expressed in transfected cells; host or cells: CHO-K1 with CRE-SPAP reporter
human α2A‐adrenoceptor [4] = target: T1, human α2A‐adrenoceptor; experiment: ERK1/2‐phosphorylation in CHO‐α2A cells; format: cell-based; design: expressed in transfected cells; host or cells: CHO-K1 with CRE-SPAP reporter
human α2C‐adrenoceptor [5] = target: T2, human α2C‐adrenoceptor; experiment: ERK1/2‐phosphorylation in CHO‐α2C cells; format: cell-based; design: expressed in transfected cells; host or cells: CHO-K1 with CRE-SPAP reporter
human α2A‐adrenoceptor [6] = target: T1, human α2A‐adrenoceptor; experiment: 3H‐rauwolscine whole cell binding in CHO‐α2A cells; design: expressed in transfected cells; host or cells: CHO-K1 with CRE-SPAP reporter
[7] = CHO‐α2C cells, CRE‐SPAP production in the absence of forskolin

SMILES: C=CCc1ccccc1OC(C)C1=NCCN1 (stereo not drawn) [Allyphenyline]
- % inhibition, CRE‐SPAP (with forskolin) (human α2A‐adrenoceptor [1]): 50.6 ± 6.3%
- % inhibition, CRE‐SPAP (with forskolin) (human α2C‐adrenoceptor [2]): 66.8 ± 4.7%
- IC50 (human α2C‐adrenoceptor [2]): 63.1 nM
- Log EC50 (Gs), CRE‐SPAP (without forskolin) (human α2C‐adrenoceptor [2]): No response
- Kd (human α2C‐adrenoceptor [3]): 214 nM
- Kd (human α2C‐adrenoceptor [3]; Log KD, CHO‐α2C): 214 nM
- % 10 μM PDBu, ERK1/2‐phosphorylation (human α2A‐adrenoceptor [4]): 127.1 ± 13.0%
- % 10 μM PDBu, ERK1/2‐phosphorylation (human α2C‐adrenoceptor [5]): 134.5 ± 17.9%
- EC50 (human α2C‐adrenoceptor [5]): 11.7 nM

SMILES: CCC1(c2cnc[nH]2)Cc2ccccc2C1 [Atipamezole]
- Log EC50 (Gs), CRE‐SPAP (without forskolin) (human α2A‐adrenoceptor [1]; CHO‐α2A (cell line 1), absence of forskolin): No response
- Log IC50 (Gi), CRE‐SPAP (with forskolin) (human α2A‐adrenoceptor [1]; CHO‐α2A (cell line 1, 5830 fmol/mg protein), 3 μM forskolin): No response
- % inhibition, CRE‐SPAP (with forskolin) (human α2C‐adrenoceptor [2]): 15.8 ± 7.5%
- IC50 (human α2C‐adrenoceptor [2]): 200 nM
- Log efficacy ratio (KD/IC50) (human α2C‐adrenoceptor [2]): −1.78
- Log EC50 (Gs), CRE‐SPAP (without forskolin) (human α2C‐adrenoceptor [2]; [7]): No response
- % 10 μM PDBu, ERK1/2‐phosphorylation (human α2A‐adrenoceptor [4]): 42.4 ± 5.9%
- EC50 (human α2A‐adrenoceptor [4]; CHO‐α2A, read-out: Log EC50, ERK1/2‐phosphorylation (converted)): 28.8 nM
- % 10 μM PDBu, ERK1/2‐phosphorylation (human α2C‐adrenoceptor [5]): 63.7 ± 8.3%
- EC50 (human α2C‐adrenoceptor [5]; CHO‐α2C cells, given as negative log EC50, mean ± SEM, read-out: Log EC50, ERK1/2‐phosphorylation (converted)): 8.32 nM

SMILES: C=CCN1CCc2nc(N)sc2CC1 [BHT920]
- % inhibition, CRE‐SPAP (with forskolin) (human α2C‐adrenoceptor [2]): 86.8 ± 6.0%
- Log EC50 (Gs), CRE‐SPAP (without forskolin) (human α2C‐adrenoceptor [2]): No response
- Log IC50 (Gi), CRE‐SPAP (with forskolin) (human α2C‐adrenoceptor [2]): −7.41 ± 0.10
- Log efficacy ratio (KD/IC50) (human α2C‐adrenoceptor [2]): 1.42
- Log KD (human α2C‐adrenoceptor [3]): −5.99
- % 10 μM PDBu, ERK1/2‐phosphorylation (human α2C‐adrenoceptor [5]): 144.8 ± 23.2%
- Log EC50, ERK1/2‐phosphorylation (human α2C‐adrenoceptor [5]): −8.18 ± 0.12

SMILES: CCN1CCc2nc(N)oc2CC1 [BHT933]
- Log efficacy ratio (KD/IC50) (human α2C‐adrenoceptor [2]): 0.62
- % inhibition, CRE‐SPAP (with forskolin) (human α2C‐adrenoceptor [2]; CHO‐α2C cells, % inhibition from the 3 μM forskolin control, mean ± SEM): 86.0 ± 4.6%
- Log EC50 (Gs), CRE‐SPAP (without forskolin) (human α2C‐adrenoceptor [2]; [7]): No response
- Log IC50 (Gi), CRE‐SPAP (with forskolin) (human α2C‐adrenoceptor [2]; CHO‐α2C cells, inhibition of 3 μM forskolin‐stimulated CRE‐SPAP production, given as negative log IC50, mean ± SEM): −5.94 ± 0.08
- Log KD (human α2C‐adrenoceptor [3]; CHO‐α2C cells, 3H‐rauwolscine whole cell binding, given as negative log KD, mean only (SEM in Table 4)): −5.32
- % 10 μM PDBu, ERK1/2‐phosphorylation (human α2C‐adrenoceptor [5]; CHO‐α2C cells, maximum response compared to 10 μM PDBu, mean ± SEM): 150.0 ± 19.7%
- Log EC50, ERK1/2‐phosphorylation (human α2C‐adrenoceptor [5]; CHO‐α2C cells, given as negative log EC50, mean ± SEM): −6.63 ± 0.18

SMILES: CC(Cc1ccc(O)cc1)NCC(O)c1cc(O)cc(O)c1 (stereo not drawn) [Fenoterol]
- Log EC50 (Gs), CRE‐SPAP (without forskolin) (human α2A‐adrenoceptor [1]): No response
- Log IC50 (Gi), CRE‐SPAP (with forskolin) (human α2A‐adrenoceptor [1]): No response
- Log EC50 (Gs), CRE‐SPAP (without forskolin) (human α2C‐adrenoceptor [2]): No response
- Log IC50 (Gi), CRE‐SPAP (with forskolin) (human α2C‐adrenoceptor [2]): No response
- Kd (human α2A‐adrenoceptor [6]; Log KD (apparent), CHO‐α2A): 347000 ± 5010 nM
- Kd (human α2A‐adrenoceptor [6]; Log KD (binding)): 347000 nM
- Kd (human α2C‐adrenoceptor [3]; Log KD): 151000 nM
- Kd (human α2C‐adrenoceptor [3]; Log KD (apparent), CHO‐α2C): 151000 nM

SMILES: COc1ccc(CC(C)NCC(O)c2ccc(O)c(NC=O)c2)cc1 (stereo not drawn) [Formoterol]
- Log EC50 (Gs), CRE‐SPAP (without forskolin) (human α2A‐adrenoceptor [1]): No response
- Log IC50 (Gi), CRE‐SPAP (with forskolin) (human α2A‐adrenoceptor [1]): No response
- Log EC50 (Gs), CRE‐SPAP (without forskolin) (human α2C‐adrenoceptor [2]): No response
- Log IC50 (Gi), CRE‐SPAP (with forskolin) (human α2C‐adrenoceptor [2]): No response
- IC50 (human α2A‐adrenoceptor [6]): > 100000 nM
- IC50 (human α2A‐adrenoceptor [6]; read-out: IC50 in binding, CHO‐α2A): > 100000 nM
- IC50 (human α2C‐adrenoceptor [3]): > 100000 nM
- IC50 (human α2C‐adrenoceptor [3]; read-out: IC50 in binding, CHO‐α2C): > 100000 nM

SMILES: CC(C)NCC(O)c1ccc(O)c(O)c1 (stereo not drawn) [Isoprenaline]
- % inhibition, CRE‐SPAP (with forskolin) (human α2C‐adrenoceptor [2]): 95.0 ± 5.2%
- % 10 μM PDBu, ERK1/2‐phosphorylation (human α2C‐adrenoceptor [5]): 130.7 ± 11.1%

SMILES: Cc1cccc(C(C)c2cnc[nH]2)c1C (stereo not drawn) [Medetomidine]
- % 3 μM forskolin, CRE‐SPAP (without forskolin) (human α2A‐adrenoceptor [1]): 23.1 ± 4.7%
- % inhibition, CRE‐SPAP (with forskolin) (human α2C‐adrenoceptor [2]): 86.4 ± 2.1%
- Log EC50 (Gs), CRE‐SPAP (without forskolin) (human α2C‐adrenoceptor [2]): No response
- IC50 (human α2C‐adrenoceptor [2]; Log IC50 (Gi), CRE‐SPAP (with forskolin)): 0.513 nM
- Kd (human α2C‐adrenoceptor [3]; read-out: Log KD (converted)): 32.4 nM
- Kd (human α2C‐adrenoceptor [3]; read-out: Log KD, CHO‐α2C (converted)): 32.4 nM
- % 10 μM PDBu, ERK1/2‐phosphorylation (human α2A‐adrenoceptor [4]): 114.1 ± 9.3%
- % 10 μM PDBu, ERK1/2‐phosphorylation (human α2C‐adrenoceptor [5]): 159.3 ± 16.4%
- EC50 (human α2C‐adrenoceptor [5]; read-out: Log EC50, ERK1/2‐phosphorylation (converted)): 0.195 nM
